Key:
[1] = tested on: carrageenan-induced paw edema; test: Carrageenan-induced rat paw edema; format: in vivo; details: for anti-inflammatory effect on paw swelling compared with parent NSAID: equimolar oral doses (Example 12); for paw volume versus vehicle treated rats (FIG. 2A): P<0.05, four rats in each group
Procedure: Carrageenan (1%, 100 μL, suspended in sterile saline solution, type IV lamda; Sigma-Aldrich) was subcutaneously injected into the plantar surface of the right hind paw in rat following the protocol described by Winter et al., Proceedings of the Society for Experimental Biology and Medicine 1962, 111:544-547. Paw volume was measured using a water displacement plethysmometer (model 520; IITC/Life Sciences Instruments, Woodland Hills, Calif.) before carrageenan injection and thereafter at 1-h intervals for 6 h. The paw volume measured just before carrageenan injection was used as the control volume. Data are expressed as the change in paw volume (milliliters) at each time point.
Carrageenan, type IV lambda (1%, 100 μL suspended in sterile saline solution), from Sigma Chemicals (St. Louis, Mo.) was subcutaneously injected into the plantar surface of the right hind paw in rat following the protocol described by Winter et al., Proceedings of the Society for Experimental Biology and Medicine 1962, 111:544-547. Paw volume was measured using a water displacement plethysmometer (Model 520, IITC/Life Sciences Instruments, Woodland Hills, Calif.) before carrageenan injection and thereafter at 1 hour intervals for 5 hours. The paw volume measured just prior to carrageenan injection was used as the control volume. Data are expressed as the change in paw volume (mL) at each time point.

[2] = tested on: TNF-α; test: Plasma TNF-α enzyme immunoassay; format: in vivo, rat; details: for plasma TNFα concentration: rats, equimolar oral doses: ASA 180 (1 mmol/kg), NOSH-ASA 477, naproxen 80, NOSH-naproxen 188, sulindac 200, NOSH-sulindac 467 mg/kg, control 11±0.3; for plasma TNF-α (FIG. 3): P<0.01 vs vehicle, P<0.01 vs ASA
Procedure: Fresh samples of blood from the animals were taken by cardiac puncture into heparin-containing vials. The determination of plasma TNF-α was carried out by an enzyme immunoassay kit from R&D systems (Minneapolis, Minn.). Briefly, each sample (50 μL) was incubated with antibodies specific for rat TNF-α and washed three times with assay buffer. An enzyme-linked polyclonal antibody specific for rat TNF-α conjugated to horseradish peroxidase was then added to the wells. Following washing of unbound antibody-enzyme reagent, a substrate solution (containing tetramethylbenzidine, TMB, plus hydrogen peroxide) was added to the wells. The enzyme reaction yielded a blue product (oxidized TMB) that turned yellow when the stop solution (dilute hydrochloride acid) was added. The intensity of the color was determined by measuring the OD of the yellow color in a standard ELISA plate reader at 450 nm. Sensitivity of this TNF-α assay was determined by adding two standard deviations to the mean optical density value of 20× zero standard replicates and calculating the corresponding concentration. The kit contains all reagents and standards needed for the TNF-α sensitivity assay. The results are expressed as pg/mL.
This was done by an enzyme immunoassay kit from R&D systems (Minneapolis, Minn.) following the protocol described by the manufacturer. Briefly, fresh blood (50 μL) was incubated with antibodies specific for rat TNF-α and washed three times with assay buffer. An enzyme-linked polyclonal antibody specific for rat TNF-α conjugated to horseradish peroxidase was then added to the wells. Following washing of unbound antibody-enzyme reagent, a substrate solution (containing tetramethylbenzidine, TMB, plus hydrogen peroxide) was added to the wells. The enzyme reaction yielded a blue product (oxidized TMB) that turned yellow when the stop solution (dilute hydrochloride acid) was added. The intensity of this was measured at 450 nm. Sensitivity of this TNF-α assay was determined by adding two standard deviations to the mean optical density value of 20× zero standard replicates and calculating the corresponding concentration.

[3] = tested on: SW-480 human colon adenocarcinoma; test: MTT cell growth inhibition, SW480; format: cell-based; details: for IC50: Homo sapiens, SW480; for Ratio NSAID/NOSH-NSAID, SW480: fold-enhancement in potency over the parent compound
Procedure: All cells lines were grown as monolayers except for the Jurkats which were grown in suspension. […] All media were supplemented with 10% fetal calf serum (Invitrogen, Carlsbad, Calif.) penicillin (50 U/ml), and streptomycin (50 μg/ml) (Invitrogen, Carlsbad, Calif.). Cells were seeded on culture dishes at a density of 25×10^3 cells/cm^2 and incubated at 37° C. in 5% CO2 and 90% relative humidity. Single cell suspensions were obtained by trypsinization (0.05% trypsin/EDTA), and cells were counted using a hemocytometer. Viability was determined by the trypan blue dye exclusion method.
Cell growth inhibitory effect of NOSH compounds were measured using a colorimetric MTT assay kit (Roche, Indianapolis, Ind.). Cancer cells were plated in 96-well plates at a density of 50,000 cells/well. The cells were incubated for 24 h with different concentrations of NOSH compounds. After the indicated time, 10 μl of MTT dye (3-[4,5-dimethylthiazol-2-yl]-2,5-diphenyl tetrazolium bromide, 5 mg/ml in phosphate buffered saline), was added to each well, and the plates were incubated for 2 hours at 37° C. Then, the media was aspirated, and add 100 μl of the solubilization solution (10% SDS in 0.01 M HCl) was added to each well to solubilize the formant crystals. The absorbance of the plates was measured on an ELISA reader at a wavelength of 570 nm. Each sample was performed in triplicate, and the entire experiment was repeated three times.
All media were supplemented with 10% fetal calf serum (Invitrogen, Carlsbad, Calif.) penicillin (50 U/ml), and streptomycin (50 μg/ml) (Invitrogen, Carlsbad, Calif.). Cells were seeded on culture dishes at a density of 25×10^3 cells/cm^2 and incubated at 37° C. in 5% CO2 and 90% relative humidity. Single cell suspensions were obtained by trypsinization (0.05% trypsin/EDTA), and cells were counted using a hemacytometer. The final DMSO concentration was adjusted in all media to 1%. Viability was determined by the trypan blue dye exclusion method.
Cell growth inhibitory effect of all NOSH-NSAIDs was measured using a colorimetric MTT assay kit (Roche, Indianapolis, Ind.). Cancer cells were plated in 96-well plates at a density of 30,000-50,000 cells/well depending on cell type. The cells were incubated for 24 hours with different concentrations of NOSH-NSAIDs. After the indicated time, 10 μL of MTT dye (3-[4,5-dimethylthiazol-2-yl]-2,5-diphenyl tetrazolium bromide, 5 mg/mL in phosphate buffered saline), was added to each well, and the plates were incubated for 2 hours at 37° C. Then, the media was aspirated, and 100 μL of the solubilization solution (10% SDS in 0.01 M HCl) was added to each well to solubilize the formant crystals. The absorbance of the plates was measured on a spectrophotometric plate reader at a wavelength of 570 nm. Each experiment was performed in triplicate, and the entire experiment was repeated three times.

[4] = tested on: gastric mucosa; test: Gastric damage, ulcer index; format: in vivo, rat; details: rats, oral gavage, equimolar doses: ASA 180, NOSH-ASA 477, naproxen 80, NOSH-naproxen 188, sulindac 200, NOSH-sulindac 467 mg/kg; 6 h post-administration; vehicle UI=0
Procedure: The institutional animal care and research committees approved all experimental procedures described herein. Male Wistar rats (4 per group) weighing 180-200 g were obtained from Charles River Laboratories International (Wilmington, Mass.). The rats were fed standard laboratory chow and water. Rats were fasted for 48 h with free access to drinking water. […] Stomachs were then rapidly removed, cut along the greatest curvature, and rinsed with ice-cold distilled water. […] Tissues from stomachs were excised and processed for measurement of Prostaglandin E2 (PGE2), malondialdehyde (MDA) and Superoxide dismutase (SOD) activity.

With `CC(C(=O)Oc1ccc(-c2cc(=S)ss2)cc1)c1ccc2cc(OC(=O)CCCO[N+](=O)[O-])ccc2c1` (stereo not shown) [NOSH-7, 6-(1-oxo-1-(4-(3-thioxo-3H-1,2-dithiol-5-yl)phenoxy)propan-2-yl)naphthalen-2-yl 4-(nitrooxy)butanoate] the “anti-inflammatory effect on paw swelling compared with parent NSAID” value [1] was “even lower inflammatory response compared to naproxen”, the “plasma TNFα concentration” value [2] was 48 ± 2 pg/mL and the IC50 ([3]; 24 hours (Table 7)) was 98 nM. The “Ratio NSAID/NOSH-NSAID, SW480” value [3] was 31,734 and the “gastric damage score, ulcer index (UI)” value [4] was 2.
`O=C(CCCO[N+](=O)[O-])Oc1ccccc1C(=O)Oc1ccc(-c2cc(=S)ss2)cc1` [NOSH-1, 4-(3-thioxo-3H-1,2-dithiol-5-yl)phenyl 2-((4-(nitrooxy)butanoyl)oxy)benzoate] was tested, and the “paw volume versus vehicle treated rats (FIG. 2A)” value [1] was “significant reduction in paw volume at all time points”, the “change in paw volume ΔV” value ([1]; high dose NOSH-1 0.52 mmol/kg, after 1-2 hours) was 0.45 mL and the “change in paw volume ΔV” value ([1]; high dose NOSH-1 0.52 mmol/kg, over the next 4 hours (to 6 h)) was 0.35 mL. For the same molecule, the “change in paw volume ΔV” value ([1]; low dose NOSH-1 0.21 mmol/kg, after 1 hour) was 0.5 mL, the “change in paw volume ΔV” value ([1]; low dose NOSH-1 0.21 mmol/kg, by 3 hours) was 0.6 mL and the “change in paw volume ΔV” value ([1]; low dose NOSH-1 0.21 mmol/kg, over the next 3 hours (to 6 h)) was about 0.4 mL. The “plasma TNF-α concentration” value ([2]; NOSH-1 0.21 mmol/kg) was 55 ± 2 pg/mL, the “plasma TNF-α concentration” value ([2]; NOSH-1 0.52 mmol/kg) was 40 ± 3 pg/mL and the “plasma TNF-α (FIG. 3)” value [2] was “significantly less”. For the same molecule, the “plasma TNFα concentration” value [2] was 75 ± 1 pg/mL, the IC50 ([3]; 24 hours) was 60 ± 4 nM and the “gastric damage score, ulcer index (UI)” value [4] was 2.
`O=C(CCCC[C@@H]1CCSS1)Oc1ccccc1C(=O)OCCCCO[N+](=O)[O-]` [NOSH-4, (R)-4-(nitrooxy)butyl 2-((5-(1,2-dithiolan-3-yl)pentanoyl)oxy)benzoate] gave an IC50 ([3]; 24 hours) of 600 ± 25 nM.
`CC1=C(CC(=O)Oc2ccc(OC(=O)CCCO[N+](=O)[O-])c(C(=O)Oc3ccc(-c4cc(=S)ss4)cc3)c2)c2cc(F)ccc2/C1=C/c1ccc([S+](C)[O-])cc1` (stereo not shown) [NOSH-8, (E)-4-(3-thioxo-3H-1,2-dithiol-5-yl)phenyl 5-(2-(5-fluoro-2-methyl-1-(4-(methylsulfinyl)benzylidene)-1H-inden-3-yl)acetoxy)-2-((4-(nitrooxy)butanoyl)oxy)benzoate] was tested, and the “anti-inflammatory effect on paw swelling compared with parent NSAID” value [1] was “the same anti-inflammatory response as sulindac”, the “plasma TNFα concentration” value [2] was 50 ± 3 pg/mL and the IC50 ([3]; 24 hours (Table 7)) was 110 nM. For the same molecule, the “Ratio NSAID/NOSH-NSAID, SW480” value [3] was 6,454 and the “gastric damage score, ulcer index (UI)” value [4] was 10.
`O=C(CCC(=O)Oc1ccccc1C(=O)Oc1ccc(-c2cc(=S)ss2)cc1)OCCCCO[N+](=O)[O-]` [NOSH-2, 4-(nitrooxy)butyl (2-((4-(3-thioxo-3H-1,2-dithiol-5-yl)phenoxy)carbonyl)phenyl) succinate] showed an IC50 ([3]; 24 hours) of 97 ± 7 nM.
`CC(=O)Oc1ccccc1C(=O)O` [ASA, aspirin, reference compound] was tested, and the “change in paw volume ΔV” value ([1]; ASA 0.56 mmol/kg, after 6 hours) was about 0.35 mL, the “change in paw volume ΔV” value ([1]; ASA 0.56 mmol/kg, at 1 hour) was 0.4 mL and the “change in paw volume ΔV” value ([1]; ASA 0.56 mmol/kg, over the next 2 hours (after 1 h)) was about 0.35 mL. The “paw volume versus vehicle treated rats (FIG. 2A)” value [1] was “significant reduction in paw volume at all time points”, the “increase of plasma TNF-α concentration over control” value ([2]; ASA 0.56 mmol/kg) was “about 20 fold” and the “plasma TNF-α concentration” value ([2]; ASA 0.56 mmol/kg, control 10±1) was 200 ± 10 pg/mL. For the same molecule, the “increase of plasma TNFα concentration over control” value ([2]; ASA 1 mmol/kg) was “about 20 fold”, the “plasma TNF-α (FIG. 3)” value [2] was “significant rise” and the “plasma TNFα concentration” value [2] was 190 ± 5 pg/mL.
`NC(=S)c1ccc(OC(=O)c2ccccc2OC(=O)CCCO[N+](=O)[O-])cc1` [NOSH-3, 4-carbamothioylphenyl 2-((4-(nitrooxy)butanoyl)-oxy)benzoate] was tested, and the IC50 ([3]; 24 hours) was 5300 ± 240 nM.
In the case of `CC1=C(CC(=O)O)c2cc(F)ccc2/C1=C\c1ccc([S+](C)[O-])cc1` (stereo not shown) [sulindac, reference compound], the “plasma TNFα concentration” value [2] is reported as 230 ± 5 pg/mL, the IC50 ([3]; 24 hours (Table 7)) is reported as 710000 nM and the “gastric damage score, ulcer index (UI)” value [4] is reported as 130.

Reference: patent US10450260B2, “NO- and H2S-releasing compounds” (RESEARCH FOUNDATION OF THE CITY UNIVERSITY OF NEW YORK, priority 2011, dated 2019)
